From paper PMC4245162 (ACS Chemical Biology, 2014)

Molecular target: T1, SETD8 (Homo sapiens, UniProt Q9NQR1)
T1 sequence (Q9NQR1 191-352 isoform Q9NQR1-2): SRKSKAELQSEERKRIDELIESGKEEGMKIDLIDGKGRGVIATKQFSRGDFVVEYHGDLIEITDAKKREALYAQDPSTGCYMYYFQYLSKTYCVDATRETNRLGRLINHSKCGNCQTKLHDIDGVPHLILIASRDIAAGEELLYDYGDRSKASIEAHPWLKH
Experiment: secondary radiometric filter paper assay, SETD8
Format: biochemical
Conditions: read-out: IC50 against SETD8; apparent IC50; SAM/peptide/enzyme = 0.75:1.5:1

- IC50: 82 µM
SMILES: O=C1C(SCCO)=C(SCCO)C(=O)c2ccccc21 [NSC95397]
